{"source": "paper PMC4104761", "about": "“Identification of a novel lytic peptide for the treatment of solid tumours” (Genes & Cancer, 2014)", "key": {"BALB/c mice": {"tested_on": "BALB/c mice", "assay": "In vivo toxicity after tail vein injection", "parameters": "species or system mouse", "settings": "100 µl bolus per animal", "procedure": "Cypep-1 was injected into the lateral tail vein of 37 BALB/c mice (average age 131,7 days; average weight 25.2 g). In detail, the group consisted of 18 male (average weight 26.5g) and 19 female animals (average weight 23.9g). The respective peptide concentrations administered were increased systematically from 50µg up to 800µg Cypep-1 per bolus per animal. All Cypep-1 doses were adjusted to a total injection volume of 100µl 0,9% NaCl, which remained constant for all animals. Throughout the experiment, a group of 4 animals (2 males/ 2 females) received the same Cypep-1 concentrations per bolus, respectively. All injections were performed very slowly in order to avoid cardiac stress. The mice were then observed for a period of 24h with regards to signs of distress and pain (e.g. orbital tightening, flattened ear position, formation of nose and/or cheek bulge, whisker change, overall activity level) as well as potential toxic effects. During the first 2 hours, the animals were monitored continuously and then checked again at 4 h, 6 h, 12 h and 24 h post injection."}, "[1]": {"tested_on": "4T1 murine mammary carcinoma allografts", "assay": "Treatment of subcutaneous 4T1 murine breast cancer allografts", "type": "in vivo, BALB/c mice", "procedure": "10^6 4T1 murine metastatic breast cancer cells were grafted subcutaneously under Isofluran anaesthesia into the right upper quadrant of the back of 20 female BALB/c mice (average age 126,25 days; average weight 23.8g). At day 12, when the tumours of both groups had reached a tumour volume of 0.12cm^3 in average, 10 female mice (average weight 23.9 g) received a single intra-tumoural injection of 1200 µg of Cypep-1 dissolved in 300 µl 0.9% NaCl, whereas an equal injection volume of 0.9% NaCl was administered to the 10 animals of the control group (average weight 23.7 g). All injections were performed under isofluoran gas anaesthesia. The animals were then observed for signs of distress as described above. 24 hours after the injections, two animals (one assigned to the control and one of the treatment group) were sacrificed for histological analysis. The harvested tumours were immediately fixed in 4% buffered formaldehyde and embedded in paraffin, cut into 5 µm sections and stained with H&E.\nIn the remaining 18 experimental animals, the tumour size was measured at regular intervals (every 4th day) until day 24 post tumour grafting. All mice were monitored daily for signs of distress and pain. Those that became sick were euthanized humanely. All animal procedures described were in accordance with protocols approved by The National Animal Research Authority (Oslo, Norway)."}, "normal human cell lines": {"tested_on": "normal human cell lines", "assay": "MTT viability assay, average of normal human cell lines", "type": "cell-based", "settings": "20 µg Cypep-1/ml, 60 min exposure", "procedure": "(§1) Cypep-1 was tested in various concentrations on a total of 17 cell lines, which included 13 human and 1 murine tumour cell line(s), as well as 3 normal human cell lines. Listed in detail: 4 human osteosarcoma (U2OS, SaOS2, HOS and MNNG-HOS), 6 human glioblastoma (A172, GaMg, LN18, U87, U373 and T98G) and 3 human mammary carcinoma cell lines (MCF7, AU565 and MDA-MB-468) as well as an additional murine mammary carcinoma cell line (4T1). Furthermore, 3 normal human cell lines were included: 2 normal human fibroblast cell lines (HFF1 and 142Br) as well as normal human osteoblasts (HOB).\n(§2) MTT proliferation assays were performed on all cell lines (with the exception of 142Br (human skin fibroblasts)), using monolayers of 15 000 cells in sterile 96 well tissue culture plates (Nunc™, Roskilde, Denmark), respectively. All cells were incubated with Cypep-1 dissolved in 0.9% NaCl, at the following concentrations: 0.1, 0.5, 1.0, 5, 10, 15, 20, 25, 30 and 35µg of Cypep-1 per ml and assayed after 15, 30, 45, 60, 75, 90, 180, 270 and 360 min."}, "[2]": {"tested_on": "4T1 murine mammary carcinoma cells", "assay": "Time-lapse confocal microscopy", "type": "cell-based", "settings": "20 µg Cypep-1/ml for 3 hours; strongest effect between 40 and 55 min", "procedure": "30.000 cells of the murine mammary carcinoma cell line 4T1 were seeded into a sterile 24 well dish (Nunc™, Roskilde, Denmark). After 24 hours, the monolayer culture was treated with 20µg Cypep-1/ml, followed by immediate observation of the cells at 37°C and 5% CO2 for a period of 3 hours by means of time-lapse confocal microscopy, using a Zeiss LSM510 Meta System (Carl Zeiss AG, Jena, Germany), equipped with both bright field optics and red fluorescence optics at 595nm. The same experiment was repeated as described above with 4T1 cells that had previously been stably transfected with red fluorescent protein, using a dsRed-expressing lentiviral vector pWPXL-dsRED as previously described by Niclou et al.."}, "[3]": {"assay": "Liposome leakage assay (ANTS/DPX fluorescence)", "type": "biochemical", "settings": "25°C, pH 7.4, fluorescence at 510 nm, triplicate; for leakage of ANTS from liposomes: 0 to 90 µg/ml", "procedure": "To assess the membranolytic effect of Cypep-1 on the integrity of phospholipid model membranes, liposome leakage assays monitored by fluorescence spectroscopy were performed on 200 nm liposomes as described earlier. […] (purchased from CPC Scientific, San Jose, CA) was used as control in the leakage assays (Peptide A).\nNegatively charged PBPS: EYL (1:1 mixture) as well as neutral pure EYL vesicles were used, in which both liposome types encapsulated the fluorochrome ANTS (8 aminonaphtalene-1,3,6 trisulfonic acid) and its corresponding quencher DPX (p-xylene-bis[N-pyridinium bromide]). In principle, a disruption of the liposomes' bi-layer induces leakage of the fluorophore ANTS. This entails an increase in fluorescence at 510 nm. All fluorescence spectra were recorded at 25°C and pH 7.4 on a Cary Eclipse Fluorescence Spectrophotometer (Varian Optical Spectroscopy Instruments, Mulgrave, Victoria, Australia). The respective titrations with Cypep-1 and the control Peptide A were performed in concentrations ranging from 0 µg/ml to 90 µg/ ml (0 µM to 26 µM). The fluorescence was measured for each concentration point of the concentration series, and all measurements were performed in triplicate. At the end of each measurement, Triton X-100 was added to a final concentration of 2 mM, to obtain the maximum membrane leakage. The resulting maximum fluorescence at 510 nm is defined as 100%, i.e. complete liposome breakdown. The induced leakages of the fluorophore ANTS due to exposure to the peptides were then evaluated as a percentage of its complete release after Triton X-100 exposure. The initial fluorescence intensity of the respective liposome solutions was defined as 0% leakage."}, "all cancer cell lines": {"tested_on": "all cancer cell lines", "assay": "MTT viability assay, average of all cancer cell lines", "type": "cell-based", "settings": "20 µg Cypep-1/ml, 60 min exposure", "procedure": "as §1, §2"}}, "data": [{"sequence": "YGRKKRRQRRRGKTLRVAKAIYKRYIE [Cypep-1]", "values": [{"measurement": "dose with first signs of toxicity (seizure-like catatonic stupor)", "setting": "BALB/c mice; slow tail vein injection", "result": 600, "unit": "µg"}, {"measurement": "dose with no signs of distress or pain", "setting": "BALB/c mice; slow tail vein injection, 24 h observation", "result": "up to 500 µg"}, {"measurement": "lethal dose", "setting": "BALB/c mice; tail vein injection, death within 5 - 10 min", "result": 800, "unit": "µg"}, {"measurement": "histological analysis of tumours", "setting": "[1]; 24 hours after intra-tumoural administration of 1200 µg, H&E", "result": "extensive areas of necrosis"}, {"measurement": "average tumour volume at day 24", "setting": "[1]; single intra-tumoural injection of 1200 µg at day 12, control 3.5 cm^3, P<0.0001", "result": 1.1, "unit": "cm^3"}, {"measurement": "median survival", "setting": "[1]; single intra-tumoural injection of 1200 µg at day 12, control 20 days, P<0.0011", "result": 32, "unit": "days"}, {"measurement": "signs of discomfort, pain or toxicity after intratumoural injection", "setting": "[1]; single intra-tumoural injection of 1200 µg in 300µl 0.9% NaCl, BALB/c mice", "result": "None of the animals showed any signs of discomfort, pain or toxicity"}, {"measurement": "surviving fraction, average of normal human cell lines", "setting": "normal human cell lines", "result": 56, "unit": "%"}, {"measurement": "membrane disruption by time-lapse confocal microscopy", "setting": "[2]", "result": "extensive loss of cell content into the medium"}, {"measurement": "leakage of ANTS from liposomes", "setting": "[3]; 200 nm EYL liposomes", "result": "significant leakage of ANTS"}, {"measurement": "leakage of ANTS from liposomes", "setting": "[3]; 200 nm liposomes PBPS:EYL 1:1", "result": "significant leakage of ANTS"}, {"measurement": "EC50", "setting": "[3]; ANTS/DPX leakage, 200 nm liposomes PBPS:EYL 1:1, read-out: S0.5, concentration necessary to achieve membrane disruption", "result": "8.3 ± 0.5", "unit": "µM"}, {"measurement": "surviving fraction, average of all cancer cell lines", "setting": "all cancer cell lines", "result": 18.6, "unit": "%"}]}]}
